Laboratory results as given in the NIST ThermoML archive (doi:10.1021/je100624p).
Numbers after ± are expanded uncertainties.

Details: Liquid, Closed cell (Static) method

Row | vapor or sublimation pressure (303.15 K) | vapor or sublimation pressure (313.15 K) | vapor or sublimation pressure (308.15 K) | vapor or sublimation pressure (318.15 K) | SMILES
1 | 10.43 ± 0.29 kPa | 17.84 ± 0.32 kPa | – | – | CCO [ethanol]
2 | 7.933 ± 0.28 kPa | – | 10.72 ± 0.29 kPa | – | CC(C)O [propan-2-ol]
3 | 4.186 ± 0.27 kPa | 7.346 ± 0.27 kPa | 5.493 ± 0.27 kPa | 9.493 ± 0.27 kPa | O [water]
